{"source": "ChEMBL document CHEMBL4828751", "about": "“Discovery of novel tubulin/HDAC dual-targeting inhibitors with strong antitumor and antiangiogenic potency” (Eur J Med Chem, 2021)", "key": {"MGC-803 [1]": {"test_system": "MGC-803", "assay": "Induction of apoptosis in human MGC-803 cells assessed as early apoptotic cells at 15 nM measured after 48 hrs by Annexin V-APC/PI double staining based flow cytometry assay (reference value: 1.31 %)", "assay_type": "functional, cell-based"}, "HUVEC": {"test_system": "HUVEC", "assay": "Inhibition of cell migration in HUVEC cells assessed as decrease in number of migrated endothelial cells at 5 to 20 nM measured after 48 hrs by transwell analysis", "assay_type": "functional, cell-based", "details": "Homo sapiens, dose 5-20 nM"}, "Tubulin": {"target": "Tubulin", "assay": "Inhibition of tubulin polymerization (unknown origin) measured after 1 min by fluorescence assay", "assay_type": "protein-complex assay, Homo sapiens", "details": "read-out: IC50"}, "HepG2": {"test_system": "HepG2", "assay": "Antiproliferative activity against human HepG2 cells assessed as cell growth inhibition after 72 hrs by SRB assay", "assay_type": "functional, cell-based", "details": "HepG2, 72 h"}, "MGC-803 [2]": {"test_system": "MGC-803", "assay": "Induction of apoptosis in human MGC-803 cells assessed as increase in cleaved Caspase-3 expression incubated for 24 hrs by Western blot analysis", "assay_type": "functional, cell-based", "details": "dose 7.5-30 nM"}, "MGC-803 [3]": {"test_system": "MGC-803", "assay": "Induction of apoptosis in human MGC-803 cells assessed as increase in cleaved PARP expression incubated for 24 hrs by Western blot analysis", "assay_type": "functional, cell-based"}, "MGC-803 [4]": {"test_system": "MGC-803", "assay": "Induction of apoptosis in human MGC-803 cells assessed as increase in cleaved Caspase-7 expression incubated for 24 hrs by Western blot analysis", "assay_type": "functional, cell-based", "details": "dose 7.5-30 nM"}, "MGC-803 [5]": {"test_system": "MGC-803", "assay": "Induction of cell cycle arrest in human MGC-803 cells assessed as accumulation at G1 phase at 7.5 nM incubated for 24 hrs by propidium iodide staining based flow cytometry (reference value: 45.67 %)", "assay_type": "functional"}, "MGC-803 [6]": {"test_system": "MGC-803", "assay": "Induction of mitochondrial membrane potential loss in human MGC-803 cells at 7.5 nM after 48 hrs by JC-1 staining based flow cytometric analysis (reference value: 86 %)", "assay_type": "functional"}, "MGC-803 [7]": {"test_system": "MGC-803", "assay": "Induction of apoptosis in human MGC-803 cells assessed as increase in cleaved Caspase-9 expression incubated for 24 hrs by Western blot analysis", "assay_type": "functional, cell-based", "details": "dose 7.5-30 nM"}, "MGC-803 [8]": {"test_system": "MGC-803", "assay": "Induction of mitochondrial membrane potential loss in human MGC-803 cells at 30 nM after 48 hrs by JC-1 staining based flow cytometric analysis (reference value: 86 %)", "assay_type": "functional"}, "Tubulin (Homo sapiens)": {"target": "Tubulin (Homo sapiens) (UniProt P68371+Q9H4B7+P0DPH7+P68366+Q13509+Q71U36+P04350+Q3ZCM7+P07437+P68363+Q9BQE3+Q6PEY2+Q13885+Q9BVA1+Q9BUF5)", "assay": "Inhibition of tubulin polymerization in human MGC-803 cells assessed as blockage of spindle formation at 30 nM measured after 48 hrs by Hoechst staining based confocal microscopy analysis", "assay_type": "cell-based"}, "MGC-803 [9]": {"test_system": "MGC-803", "assay": "Down regulation of p21 expression in human MGC-803 cells at 7.5 to 30 nM measured after 24 hrs by Western blot analysis", "assay_type": "functional, cell-based", "details": "dose 7.5-30 nM"}, "MGC-803 [10]": {"test_system": "MGC-803", "assay": "Antitumor activity against CMTPX- labeled human MGC-803 cells xenografted in zebrafish assessed as inhibition of tumor metastasis measured after 72 hrs by fluorescence microscopic analysis", "assay_type": "functional, cell-based", "details": "dose 25-100 nM"}, "MGC-803 [11]": {"test_system": "MGC-803", "assay": "Induction of cell cycle arrest in human MGC-803 cells assessed as accumulation at G2/M phase incubated for 24 hrs by propidium iodide staining based flow cytometry", "assay_type": "functional", "details": "dose 7.5-30 nM"}, "MGC-803 [12]": {"test_system": "MGC-803", "assay": "Antitumor activity against CMTPX- labeled human MGC-803 cells xenografted in zebrafish assessed as inhibition of tumor growth measured after 72 hrs by fluorescence microscopic analysis", "assay_type": "functional, cell-based", "details": "dose 25-100 nM"}, "MGC-803 [13]": {"test_system": "MGC-803", "assay": "Induction of cell cycle arrest in human MGC-803 cells assessed as accumulation at S phase at 30 nM incubated for 24 hrs by propidium iodide staining based flow cytometry (reference value: 17.3 %)", "assay_type": "functional"}, "MGC-803 [14]": {"test_system": "MGC-803", "assay": "Induction of apoptosis in human MGC-803 cells assessed as viable cells at 15 nM measured after 48 hrs by Annexin V-APC/PI double staining based flow cytometry assay (reference value: 92.1 %)", "assay_type": "functional, cell-based"}, "MGC-803 [15]": {"test_system": "MGC-803", "assay": "Inhibition of cell migration in human MGC-803 cells assessed as decrease in wound healing rate at 7.5 to 30 nM measured after 48 hrs by wound healing assay", "assay_type": "functional, cell-based", "details": "dose 7.5-30 nM"}, "MGC-803 [16]": {"test_system": "MGC-803", "assay": "Induction of apoptosis in human MGC-803 cells assessed as late apoptotic cells at 7.5 nM measured after 48 hrs by Annexin V-APC/PI double staining based flow cytometry assay (reference value: 1.05 %)", "assay_type": "functional, cell-based"}, "U-937": {"test_system": "U-937", "assay": "Antiproliferative activity against human U-937 cells assessed as cell growth inhibition after 72 hrs by CCK8 assay", "assay_type": "functional, cell-based", "details": "U-937, 72 h"}, "MGC-803 [17]": {"test_system": "MGC-803", "assay": "Induction of apoptosis in human MGC-803 cells assessed as increase in PARP expression incubated for 24 hrs by Western blot analysis", "assay_type": "functional, cell-based", "details": "dose 7.5-30 nM"}, "MGC-803 [18]": {"test_system": "MGC-803", "assay": "Induction of ROS generation in human MGC-803 cells assessed as intracellular ROS level at 7.5 nM incubated for 24 hrs by DCFH-DA staining based flow cytometric analysis (reference value: 2.72 %)", "assay_type": "functional"}, "MGC-803 [19]": {"test_system": "MGC-803", "assay": "Induction of cell cycle arrest in human MGC-803 cells assessed as accumulation at S phase at 7.5 nM incubated for 24 hrs by propidium iodide staining based flow cytometry (reference value: 17.3 %)", "assay_type": "functional"}, "MCF7": {"test_system": "MCF7", "assay": "Antiproliferative activity against human MCF7 cells assessed as cell growth inhibition after 72 hrs by SRB assay", "assay_type": "functional, cell-based", "details": "MCF7, 72 h"}, "MGC-803 [20]": {"test_system": "MGC-803", "assay": "Induction of cell cycle arrest in human MGC-803 cells assessed as accumulation at G2/M phase at 7.5 nM incubated for 24 hrs by propidium iodide staining based flow cytometry (reference value: 37.03 %)", "assay_type": "functional"}, "MGC-803 [21]": {"test_system": "MGC-803", "assay": "Induction of apoptosis in human MGC-803 cells assessed as late apoptotic cells at 30 nM measured after 48 hrs by Annexin V-APC/PI double staining based flow cytometry assay (reference value: 1.05 %)", "assay_type": "functional, cell-based"}, "Danio rerio": {"organism": "Danio rerio", "assay": "Antiangiogenic activity in 30hpf transgenic Tg(flk:EGFP) zebra fish embryos assessed as reduction in number of intersegmental vessels by confocal fluorescence microscopy analysis", "assay_type": "functional, organism-based", "details": "Embryo, dose 0.1-0.6 µM"}, "MGC-803 [22]": {"test_system": "MGC-803", "assay": "Induction of ROS generation in human MGC-803 cells assessed as intracellular ROS level at 15 nM incubated for 24 hrs by DCFH-DA staining based flow cytometric analysis (reference value: 2.72 %)", "assay_type": "functional"}, "MGC-803 [23]": {"test_system": "MGC-803", "assay": "Induction of ROS generation in human MGC-803 cells assessed as intracellular ROS level at 30 nM incubated for 24 hrs by DCFH-DA staining based flow cytometric analysis (reference value: 2.72 %)", "assay_type": "functional"}, "MGC-803 [24]": {"test_system": "MGC-803", "assay": "Induction of apoptosis in human MGC-803 cells assessed as early apoptotic cells at 30 nM measured after 48 hrs by Annexin V-APC/PI double staining based flow cytometry assay (reference value: 1.31 %)", "assay_type": "functional, cell-based"}, "MGC-803 [25]": {"test_system": "MGC-803", "assay": "Induction of apoptosis in human MGC-803 cells assessed as necrotic cells at 30 nM measured after 48 hrs by Annexin V-APC/PI double staining based flow cytometry assay (reference value: 0.57 %)", "assay_type": "functional, cell-based"}, "MGC-803 [26]": {"test_system": "MGC-803", "assay": "Induction of cell cycle arrest in human MGC-803 cells assessed as accumulation at G1 phase at 30 nM incubated for 24 hrs by propidium iodide staining based flow cytometry (reference value: 45.67 %)", "assay_type": "functional"}, "MGC-803 [27]": {"test_system": "MGC-803", "assay": "Antiproliferative activity against human MGC-803 cells assessed as cell growth inhibition after 72 hrs by SRB assay", "assay_type": "functional, cell-based", "details": "MGC-803, 72 h"}, "MGC-803 [28]": {"test_system": "MGC-803", "assay": "Induction of apoptosis in human MGC-803 cells assessed as increase in Caspase-7 expression incubated for 24 hrs by Western blot analysis", "assay_type": "functional, cell-based", "details": "dose 7.5-30 nM"}}, "note": "pIC50: −log10 of the molar value. Calls of active or inactive are those of the source. The calls are words filed in the database; no cut-off is given here.", "data": [{"compound": "COc1ccc(/C=C\\c2cc(OC)c(OC)c(OC)c2)cc1/C=C/C(=O)Nc1ccccc1N", "values": [{"measurement": "Activity", "setting": "MGC-803 [1]", "result": "Active"}, {"measurement": "inhibition", "setting": "HUVEC", "result": "Active"}, {"measurement": "pIC50", "setting": "Tubulin", "result": 6.00}, {"measurement": "pIC50", "setting": "HepG2", "result": 7.59}, {"measurement": "Activity", "setting": "MGC-803 [2]", "result": "Dose-Dependent Effect"}, {"measurement": "Activity", "setting": "MGC-803 [3]", "result": "Dose-Dependent Effect"}, {"measurement": "Activity", "setting": "MGC-803 [4]", "result": "Dose-Dependent Effect"}, {"measurement": "Activity", "setting": "MGC-803 [5]", "result": 43.58, "unit": "%"}, {"measurement": "Activity", "setting": "MGC-803 [6]", "result": 82.9, "unit": "%"}, {"measurement": "Activity", "setting": "MGC-803 [7]", "result": "Dose-Dependent Effect"}, {"measurement": "Activity", "setting": "MGC-803 [8]", "result": 34.5, "unit": "%"}, {"measurement": "inhibition", "setting": "Tubulin (Homo sapiens)", "result": "Active"}, {"measurement": "Activity", "setting": "MGC-803 [9]", "result": "Active"}, {"measurement": "inhibition", "setting": "MGC-803 [10]", "result": "Dose-Dependent Effect"}, {"measurement": "Activity", "setting": "MGC-803 [11]", "result": "Dose-Dependent Effect"}, {"measurement": "inhibition", "setting": "MGC-803 [12]", "result": "Dose-Dependent Effect"}, {"measurement": "Activity", "setting": "MGC-803 [13]", "result": 13.6, "unit": "%"}, {"measurement": "Activity", "setting": "MGC-803 [14]", "result": "Active"}, {"measurement": "inhibition", "setting": "MGC-803 [15]", "result": "Active"}, {"measurement": "Activity", "setting": "MGC-803 [16]", "result": "Active"}, {"measurement": "pIC50", "setting": "U-937", "result": 6.52}, {"measurement": "Activity", "setting": "MGC-803 [17]", "result": "Dose-Dependent Effect"}, {"measurement": "Activity", "setting": "MGC-803 [18]", "result": 17.4, "unit": "%"}, {"measurement": "Activity", "setting": "MGC-803 [19]", "result": 12.6, "unit": "%"}, {"measurement": "pIC50", "setting": "MCF7", "result": 7.64}, {"measurement": "Activity", "setting": "MGC-803 [20]", "result": "Dose-Dependent Effect"}, {"measurement": "Activity", "setting": "MGC-803 [20]; record 2", "result": 43.82, "unit": "%"}, {"measurement": "Activity", "setting": "MGC-803 [21]", "result": "Active"}, {"measurement": "Activity", "setting": "Danio rerio", "result": "Dose-Dependent Effect"}, {"measurement": "Activity", "setting": "MGC-803 [22]", "result": 26, "unit": "%"}, {"measurement": "Activity", "setting": "MGC-803 [23]", "result": 51.4, "unit": "%"}, {"measurement": "Activity", "setting": "MGC-803 [24]", "result": "Active"}, {"measurement": "Activity", "setting": "MGC-803 [25]", "result": "Active"}, {"measurement": "Activity", "setting": "MGC-803 [26]", "result": 2.21, "unit": "%"}, {"measurement": "pIC50", "setting": "MGC-803 [27]", "result": 7.80}, {"measurement": "Activity", "setting": "MGC-803 [28]", "result": "Dose-Dependent Effect"}]}]}
